Source: patent US20230251203A1, “METHOD FOR EVALUATING ADVERSE REACTION OF SESQUITERPENOIDS IN ZEDOARY TURMERIC OIL” (BEIJING FRIENDSHIP HOSPITAL, CAPITAL MEDICAL UNIVERSITY, priority 2021, published 2023)

Key:
[1] = test system: SD male rats; assay: Influences of β-elemene on blood gas when causing dyspnea of rats (abdominal aortic blood, blood-gas analyzer); type: in vivo, rat; conditions: BE 1.5 mg/mL
Method: Preparation of a BE solution: BE reference substances were precisely weighed and dissolved by 8.8% Tween 80 solution and prepared into a BE solution having a concentration of 1.5 mg/mL.
12 pieces of SPF-grade SD male rats (6 weeks of age, weight: 200±25 g) were taken; and these rats were purchased from Beijing Vital River Laboratory Animal Technology Co., Ltd, production license number: SCXK (J.) 2016-0006.Animal experiments involved in the research process were approved by Ethics Committee. The feeding conditions of the experimental rats are as follows: standard illumination-dark period is 12 h, temperature is 22±1° C., and relative humidity is 60±5%.
The rats were randomly divided into 2 groups, 6 pieces each group. The rats were adaptively fed with common fodders for one week. Then the rats were subjected to overnight fasting (12 h), and then intraperitoneally injected with chloral hydrate (10 mg/mL, 4 mL/kg) for anesthetization. After anesthetization, the two groups were respectively injected with BE and normal saline via caudal vein with an administration volume of 6 mL/kg.
After administration, abdominal aortic blood was taken and immediately analyzed with a blood-gas analyzer.

[2] = target: T1, hemoglobin (Hb) (Homo sapiens, UniProt P68871+P69905); assay: UV absorbance of hemoglobin after interaction with sample (r value, dyspnea risk evaluation)
T1 construct: purchased Sigma H7379
T1 sequence (P69905 2-142 limits assumed): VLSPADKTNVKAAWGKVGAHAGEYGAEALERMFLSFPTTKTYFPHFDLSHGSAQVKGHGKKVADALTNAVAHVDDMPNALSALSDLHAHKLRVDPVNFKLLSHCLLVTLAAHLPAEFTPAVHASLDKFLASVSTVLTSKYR
T1 sequence (P68871 2-147 limits assumed): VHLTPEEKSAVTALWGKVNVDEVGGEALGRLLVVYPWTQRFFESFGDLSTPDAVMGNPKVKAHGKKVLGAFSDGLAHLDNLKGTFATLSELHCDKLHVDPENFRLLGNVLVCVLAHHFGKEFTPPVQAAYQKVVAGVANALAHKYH
Method: Preparation of Hb solution: a proper amount of Hb was precisely weighed and dissolved by normal saline (ultrasonic treatment for 30 s), and prepared into a solution having a concentration of 2 mg/mL.
Preparation of a BE solution: BE reference substance is precisely weighed and dissolved by 8.8% Tween 80 solution and prepared into a solution having a concentration of 1.5 mg/mL.
100 μL Hb solution was added to wells of a 96-well plate, and 100 μL BE sample solution, 100 μL 8.8% Tween 80 solution or 100 μL normal saline (as blank control) were successively added to the wells added with Hb solution. Each sample was repeated with 3 wells; then the microwell plate was covered, and the mixed solution was oscillated for 5 s in an oscillator to be mixed well, standing for 10 min at 25° C. A microplate reader was used for detection, and detection conditions were as follows: spectrum scanning was performed at 37° C. and 230-400 nm with a step size of 5 nm. […]
Where, OD is an absorbance value of a to-be-detected sample containing sesquiterpenoids in zedoary turmeric oil at a certain concentration at 280 nm after interacting with Hb; ODHb is an absorbance value of normal saline as a blank control at a wavelength of 280 nm after interacting with Hb; r is a ratio of OD to ODHb.

[3] = target: T2, hemoglobin (Hb) α-helix (Homo sapiens, UniProt P68871+P69905); assay: Circular dichroism (CD) influences of β-elemene on Hb structure; conditions: Hb 5 μM, BE 1.00-6.25 μM, 25° C.; effect increases with BE concentration; FIG. 10
T2 construct: purchased Sigma H7379
T2 sequence (P69905 2-142 limits assumed): as the sequence (P69905 2-142 limits assumed) above
T2 sequence (P68871 2-147 limits assumed): as the sequence (P68871 2-147 limits assumed) above
Method: A circular dichroism spectrum technology (CD) was used to determine the influences of β-elemene on Hb structure.
Hb mainly presents α-helix at 200-250 nm. If the α-helix structure is changed, so do the shape of CD curve at 200-250 nm. The α-helix content of Hb at 222 nm may be calculated according to the equation (1): […]
The mean residue ellipticity (MRE) (degcm^2/dmol) is calculated according to the equation (2): […]
where, Cp is molar concentration (mM) of Hb; n is the number of amino acid residues; l is optical path (mm).
Preparation of a PBS solution: a proper amount of PBS buffer solution was taken and added a small amount of Tween 80, then prepared into a PBS solution containing 0.05% Tween 80.
Preparation of a Hb solution: a proper amount of Hb was weighed precisely and added a proper amount of PBS containing 0.05% Tween 80, then prepared into Hb having a concentration of 30 μM for further use. […]
(2) each concentration of sample was placed into a quartz sample pool from small to large (during solution exchange, the sample pool was cleaned by PBS and rinsed with the to-be-detected solution), then the sample pool was put to the sample chamber for detection in turn, and each sample was screened by spectrum for 3 times; […]

[4] = target: T1, hemoglobin (Hb); assay: Surface plasmon resonance (SPR) interaction between β-elemene and hemoglobin; type: binding; conditions: Hb coupled on chip, BE 0.78-100.00 μM, FIGS. 8-9
Method: Surface plasmon resonance (SPR) technology was used to verify the interaction between β-elemene and hemoglobin. […] It is generally acknowledged that KD of binding protein to small molecules has an acceptable scope of 10^−4-10^−6M.
(1) Preparation of a Hb solution: a proper amount of Hb was weighed precisely and prepared into a solution having a concentration of 1 mg/mL with ultrapure water, then 20-fold diluted by pH 4.5 acetic acid for further use;
(2) PBS-P+10× was prepared into PBS-P+2.1× with ultrapure water, then a proper amount of DMSO was taken and prepared into PBS 2× containing 5% DMSO+0.1% Tween 20, and filtered for further use;
(3) A proper amount of BE reference substances were weighed precisely and dissolved into DMSO to be prepared into 10 mM solution, then the solution was diluted with PBS-P+2.1× to a reference substance solution containing 5% DMSO; and then the reference substance solution was diluted successively by 2× PBS-P+ to 100.00 μM, 50.00 μM, 25.00 μM, 12.50 μM, 6.25 μM, 3.12 μM. 1.56 μM and 0.78 μM and vortexed for 1 min, and then filtered by 0.22 μm filter membrane for further use.
(1) Chip activation: carboxyl (channels 1 and 2) on a chip was activated by EDC/NHS;
(2) the channel 2 was selected and coupled to a certain amount of Hb;
(3) the activated carboxyl not coupled to proteins on the chip was blocked by ethanolamine; […]

## C=C[C@]1(C)CC[C@@H](C(=C)C)C[C@H]1C(=C)C [BE, (1S, 2S, 4R)-1-vinyl-methyl-2,4-di(1-methylvinyl) cyclohexane]
[1]; 6 mL/kg via caudal vein vs normal saline, FIG. 2
  partial pressure of arterial oxygen: significantly decrease
[1]; 6 mL/kg via caudal vein vs normal saline, FIG. 3
  arterial partial pressure of carbon dioxide: significantly decreases
[1]; 6 mL/kg via caudal vein vs normal saline, FIG. 4
  arterial blood pH: no significant change
[1]; 6 mL/kg via caudal vein vs normal saline, FIG. 5
  arterial oxygen saturation: significantly decrease
[1]; 6 mL/kg via caudal vein vs normal saline, FIG. 6
  total hemoglobin: significantly increases
[1]; 6 mL/kg via caudal vein vs normal saline, FIG. 7
  oxyhemoglobin: significantly decreases
[1]; 6 mL/kg via caudal vein, recovery after stopping administration
  observed symptoms after administration: suffered dyspnea symptoms
[2]; 1.5 mg/mL BE solution + 2 mg/mL Hb, 100 μL each, FIG. 11
  Hb absorbance within 260-300 nm: significantly increasing
[2]; 1.5 mg/mL BE solution, r>1.5 indicates high risk of dyspnea
  r (ratio of OD to ODHb at 280 nm): ≈ 1.8
[3]
  effect on Hb α-helix (CD curve at 200-250 nm): makes Hb α-helix performing helix removal
[4]
  Kd: 5.84 µM
